Experiment [1] has as its target Heat shock protein HSP 90-alpha (Homo sapiens, UniProt P07900).
Description: Inhibition of recombinant HSP90alpha (unknown origin) incubated for 24 hrs in presence of 1-FITC3 probe by fluorescence polarization assay
Experiment [2] deals with T1, Heat shock protein 75 kDa, mitochondrial (Homo sapiens, UniProt Q12931).
T1 sequence (Q12931 whole entry): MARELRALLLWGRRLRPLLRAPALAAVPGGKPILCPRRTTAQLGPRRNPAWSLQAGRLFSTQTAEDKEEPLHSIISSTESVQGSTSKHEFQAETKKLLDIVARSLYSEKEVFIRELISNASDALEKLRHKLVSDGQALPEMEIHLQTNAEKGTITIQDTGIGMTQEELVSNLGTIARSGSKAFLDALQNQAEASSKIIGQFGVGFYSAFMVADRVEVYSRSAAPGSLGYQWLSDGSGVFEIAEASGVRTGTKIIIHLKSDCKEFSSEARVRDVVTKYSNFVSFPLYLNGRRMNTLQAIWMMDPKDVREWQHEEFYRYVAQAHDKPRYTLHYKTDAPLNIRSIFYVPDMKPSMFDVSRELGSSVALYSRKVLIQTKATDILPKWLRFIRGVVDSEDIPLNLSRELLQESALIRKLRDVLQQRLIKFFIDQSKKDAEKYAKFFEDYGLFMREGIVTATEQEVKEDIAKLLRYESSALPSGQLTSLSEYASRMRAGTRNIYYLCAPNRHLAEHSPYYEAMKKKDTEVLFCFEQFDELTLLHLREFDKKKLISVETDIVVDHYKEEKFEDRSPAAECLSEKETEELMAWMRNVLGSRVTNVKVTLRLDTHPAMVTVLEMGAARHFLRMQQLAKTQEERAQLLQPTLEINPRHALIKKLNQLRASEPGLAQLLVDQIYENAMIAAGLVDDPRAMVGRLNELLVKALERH
The experiment is described as follows: Inhibition of TRAP1 (unknown origin).

The target of a further experiment is Endoplasmin (Homo sapiens, UniProt P14625). The experiment is described as follows: Inhibition of GRP94 (unknown origin).
Sequence of Endoplasmin (P14625 whole entry): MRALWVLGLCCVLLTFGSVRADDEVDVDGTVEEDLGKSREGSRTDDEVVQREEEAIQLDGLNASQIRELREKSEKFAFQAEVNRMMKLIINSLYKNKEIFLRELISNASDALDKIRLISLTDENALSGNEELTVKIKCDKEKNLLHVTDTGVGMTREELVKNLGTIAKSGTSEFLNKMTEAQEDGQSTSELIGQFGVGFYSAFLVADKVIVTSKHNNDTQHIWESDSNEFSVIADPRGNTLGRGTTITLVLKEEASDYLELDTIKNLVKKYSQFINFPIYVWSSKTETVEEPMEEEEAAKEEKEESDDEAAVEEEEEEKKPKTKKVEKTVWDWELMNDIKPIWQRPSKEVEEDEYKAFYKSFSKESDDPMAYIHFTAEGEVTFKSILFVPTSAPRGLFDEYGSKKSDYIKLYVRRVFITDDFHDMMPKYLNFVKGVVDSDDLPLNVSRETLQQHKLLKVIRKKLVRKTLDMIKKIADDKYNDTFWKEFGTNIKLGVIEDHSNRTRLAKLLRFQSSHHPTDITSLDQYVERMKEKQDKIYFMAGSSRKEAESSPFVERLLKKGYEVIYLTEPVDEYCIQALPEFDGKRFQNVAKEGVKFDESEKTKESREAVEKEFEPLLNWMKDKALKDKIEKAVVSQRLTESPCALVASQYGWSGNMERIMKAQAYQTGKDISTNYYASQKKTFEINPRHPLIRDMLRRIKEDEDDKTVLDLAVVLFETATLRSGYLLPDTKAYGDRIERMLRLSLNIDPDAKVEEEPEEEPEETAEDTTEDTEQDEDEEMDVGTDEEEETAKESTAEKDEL
The test system of the next experiment is HeLa. The experiment is described as follows: Antiproliferative activity against human HeLa cells by MTT assay. The experiment is classed as functional, cell-based. (Tetrazolium assays rely on reduction of a dye to a coloured formazan, in cell work by metabolically active cells.)
A further experiment relates to PC-3. The experiment is described as follows: Antiproliferative activity against human PC3 cells by MTT assay. The experiment is classed as functional, cell-based.

The text below walks through data of ChEMBL document CHEMBL4613233, “Discovery of 2-((4-resorcinolyl)-5-aryl-1,2,3-triazol-1-yl)acetates as potent Hsp90 inhibitors with selectivity over TRAP1” (Bioorg Med Chem Lett, 2020).

pIC50: −log10 of the molar value. Some results are limits rather than exact numbers.

The term pIC50 denotes the negative decadic logarithm of the IC50, by convention in mol/L. In experiment [1], `CC(C)c1cc(-c2nnn(CC(N)=O)c2-c2ccc3c(c2)OCCO3)c(O)cc1O` gave a pIC50 of 6.87.

`CCc1cc(-c2nnn(CC(=O)OC)c2-c2cccc(S(C)(=O)=O)c2)c(O)cc1O` showed a pIC50 in experiment [1] of 6.81.

As to `CCOC(=O)Cn1nnc(-c2cc(C(C)C)c(O)cc2O)c1-c1cccc(S(C)(=O)=O)c1`, the negative-log IC50 (pIC50) in experiment [2] was 4.45; against Endoplasmin, 7.02; in experiment [1], 7.27.

`CC(C)c1cc(-c2nnn(CC(=O)O)c2-c2ccc3c(c2)OCCO3)c(O)cc1O` showed a pIC50 in experiment [1] of 6.76.

`CCc1cc(-c2nnn(CC(=O)OC)c2-c2ccc3c(c2)OCCO3)c(O)cc1O`: the pIC50 in experiment [1] was 6.76.

As for `COC(=O)Cn1nnc(-c2cc(C(C)C)c(O)cc2O)c1-c1ccc(CN2CCCCC2)cc1`, the results for the pIC50 (in experiment [2]; against Endoplasmin; in experiment [1]) were 5.16, 7.31 and 7.24, respectively.

For the compound `COC(=O)Cn1nnc(-c2cc(C(C)C)c(O)cc2O)c1-c1cccc(S(C)(=O)=O)c1`, the pIC50 in experiment [2] is 4.76; on Endoplasmin, 7.27; with HeLa it was below 5.70; in the experiment on PC-3 it was 6.24; in experiment [1], 7.37.

`CCOC(=O)Cn1nnc(-c2cc(CC)c(O)cc2O)c1-c1ccc(S(C)(=O)=O)cc1` showed a pIC50 in experiment [1] of 6.52.

`CCOC(=O)Cn1nnc(-c2cc(C(C)C)c(O)cc2O)c1-c1ccc2c(c1)OCCO2`: the pIC50 in experiment [2] is 4.59; at Endoplasmin, 6.72; in experiment [1] it was 7.22.

With `COC(=O)Cn1nnc(-c2cc(C(C)C)c(O)cc2O)c1-c1ccc(OCCN(C)C)cc1`, the pIC50 in experiment [2] was 4.85; on Endoplasmin, 6.76; in experiment [1], 7.15.

On to `CC(C)c1cc(-c2nnn(CC(=O)O)c2-c2ccc(S(C)(=O)=O)cc2)c(O)cc1O`, for which, in experiment [1], the pIC50 was 6.73.

With `CCOC(=O)Cn1nnc(-c2cc(CC)c(O)cc2O)c1-c1ccc(CN2CCOCC2)cc1`, the negative-log IC50 (pIC50) in experiment [1] was 6.75.

In experiment [1], `CC(C)c1cc(-c2nnn(CC(=O)O)c2-c2cccc(NS(C)(=O)=O)c2)c(O)cc1O` showed a negative-log IC50 (pIC50) of 6.12.

In turn, `CC(C)c1cc(-c2nn[nH]c2-c2ccc3c(c2)OCCO3)c(O)cc1O` showed a negative logarithm of the IC50 (pIC50) in experiment [1] of 6.77. Against the preceding compound, the pIC50 is 0.65 log units higher.

In the case of `CC(C)NCCCn1c(Sc2cc3c(cc2I)OCO3)nc2c(N)ncnc21` [PU-H71], the pIC50 in the experiment on HeLa is 6.64; in the experiment on PC-3, 6.44.

`CC(C)c1cc(-c2nn[nH]c2-c2ccc(S(C)(=O)=O)cc2)c(O)cc1O` gave a pIC50 in experiment [1] of 6.78.

`CCc1cc(-c2nnn(CC(N)=O)c2-c2ccc(S(C)(=O)=O)cc2)c(O)cc1O` gave a negative logarithm of the IC50 (pIC50) in experiment [1] of 6.33.

With `CCOC(=O)Cn1nnc(-c2cc(C(C)C)c(O)cc2O)c1-c1cccc(NS(C)(=O)=O)c1`, the pIC50 was 4.48 in experiment [2], 6.68 on Endoplasmin and 7.11 in experiment [1].

Consider `CCOC(=O)Cn1nnc(-c2cc(C(C)C)c(O)cc2O)c1-c1ccc(S(C)(=O)=O)cc1`, for which the pIC50 was 4.80 in experiment [2]; 7.00 at Endoplasmin; 6.40 with HeLa; 6.49 with PC-3; 7.38 in experiment [1].

Compound `CC(C)c1cc(-c2nn[nH]c2-c2ccccc2)c(O)cc1O` gave a negative logarithm of the IC50 (pIC50) in experiment [1] of 6.53.

In experiment [1], `CC(C)c1cc(-c2nnn(CC(N)=O)c2-c2ccc(S(C)(=O)=O)cc2)c(O)cc1O` gave a negative logarithm of the IC50 (pIC50) of 6.87.

On to `CCc1cc(-c2nnn(CC(=O)OC)c2-c2ccc(S(C)(=O)=O)cc2)c(O)cc1O`, for which the pIC50 in experiment [1] was 6.67.

Consider `CC(C)c1cc(-c2nnn(CC(=O)O)c2-c2cccc(S(C)(=O)=O)c2)c(O)cc1O`, for which the pIC50 in experiment [1] is 6.76.

For `COC(=O)Cn1nnc(-c2cc(C(C)C)c(O)cc2O)c1-c1ccc2c(c1)OCCO2`, the negative logarithm of the IC50 (pIC50) in experiment [2] is 4.93; against Endoplasmin it was 7.11; in the experiment on HeLa it was 6.30; in the experiment on PC-3 it was 6.63; in experiment [1] it was 7.32.

For the compound `COC(=O)Cn1nnc(-c2cc(C(C)C)c(O)cc2O)c1-c1ccc(CN2CCOCC2)cc1`, the pIC50 is 4.61 in experiment [2], 6.71 on Endoplasmin and 7.04 in experiment [1].

Consider `COC(=O)Cn1nnc(-c2cc(C(C)C)c(O)cc2O)c1-c1ccc(S(C)(=O)=O)cc1`, for which the pIC50 in experiment [2] is 4.80; at Endoplasmin, 7.05; in the experiment on HeLa it was below 5.70; in the experiment on PC-3 it was 6.34; in experiment [1], 7.36.

The compound `COC(=O)Cn1nnc(-c2cc(C(C)C)c(O)cc2O)c1-c1ccc(O)c(O)c1` gave a pIC50 in experiment [1] of 6.81.

Turning to `CC(C)c1cc(-c2nnn(Cc3ccccc3)c2-c2ccc(S(C)(=O)=O)cc2)c(O)cc1O`, the negative-log IC50 (pIC50) in experiment [2] is 5.07; against Endoplasmin, 7.11; with HeLa it was 6.69; in the experiment with PC-3 it was 6.54; in experiment [1], 7.34.

As to `COC(=O)Cn1nnc(-c2cc(C(C)C)c(O)cc2O)c1-c1cccc(NS(C)(=O)=O)c1`, the negative-log IC50 (pIC50) was 4.61 in experiment [2], 6.72 on Endoplasmin and 7.11 in experiment [1].

Turning to `CCc1cc(-c2nnn(CC(=O)OC)c2-c2cccc(NS(C)(=O)=O)c2)c(O)cc1O`, in experiment [1], the pIC50 is 6.74.

Consider `CCOC(=O)Cn1nnc(-c2cc(CC)c(O)cc2O)c1-c1cccc(S(C)(=O)=O)c1`, for which, in experiment [1], the pIC50 was 6.79.

As to `CC(C)c1cc(-c2n[nH]c(=O)n2-c2ccc3c(ccn3C)c2)c(O)cc1O` [GANETESPIB], the negative logarithm of the IC50 (pIC50) was 7.42 on Endoplasmin, 7.93 in the experiment with HeLa and 8.03 with PC-3.
